One assay has as its system full-length Nav1.5. Put plainly: Lysine acetylation of full-length Nav1.5 expressed in HEK 293 cells (acetyl-lysine IP / immunoblot). It is filed as cell-based. The note with it: HEK 293 cells expressing the full-length channel. From the text: FIGS. 8A and 8B show a series of Western blot images illustrating that wild-type SIRT1 deacetylates full-length Nav1.5. (8A) GFP-tagged full-length Nav1.5 was expressed in HEK 293 cells, with and without myc-tagged wild-type SIRT1, and immunoprecipitated (IP). IPs were immunoblotted (IB) with GFP and myc. (8B) Nav1.5 was expressed in HEK 293 cells. Cells were co-transfected with SIRT or treated with resveratrol or NAM. Acetyl-lysine IPs were immunoblotted for Nav1.5
(§1) How SIRT1 acts to increase Nav1.5 membrane localization and INa was addressed. Because SIRT1 is a lysine deacetylase, it was hypothesized that it changes the acetylation status of lysine residues in Nav1.5. To test this hypothesis, whether the two proteins bind to each other was tested. […] In addition, endogenous SIRT1 co-precipitated with endogenous Nav1.5 in NRCMs and in mouse hearts (FIG. 7B). Next, if Nav1.5 is acetylated on lysine residues was determined. In HEK 293 cells expressing the full-length channel, Nav1.5 was robustly acetylated on lysine residues, and overexpression or stimulation (with resveratrol) of SIRT1 decreased, while inhibition of SIRT1 with NAM increased, this acetylation (FIG. 8).

A further assay concerns Nav1.5 (III-IV). Kind of assay: Lysine acetylation of GST-tagged Nav1.5 (III-IV) expressed in HEK 293 cells. The following applies: GST-tagged loop III-IV construct in HEK 293 cells. It is filed as cell-based. The source says: GST-tagged Nav1.5 (III-IV) was expressed in HEK 293 cells. Cells were co-transfected with wild-type SIRT1 or treated with NAM or resveratrol. Nav1.5 (III-IV) was pulled down with GST-agarose, and immunoblotted (IB) with GST and acety-lysine antibodies.
Because Nav1.5 has 84 lysine residues, the number of putative lysine targets of SIRT1 was narrowed down by excluding the extra-cellular and membrane-spanning domains. Attention was initially focused on one intracellular region (termed loop III-IV) which is rich in lysine residues (12 lysines), based on by prior reports showing that lysines in this region are important for channel function (Grant et al., J. Clinic. Invest. 110, 1201-1209, 2002). Using a GST-tagged construct encoding the 61 amino acids in loop III-IV expressed in HEK 293 cells, if lysine acetylation of this region of Nav1.5 is regulated by SIRT1 was examined.

Assay [1] deals with GFP-tagged full-length Nav1.5. Put plainly: Ubiquitination of GFP-tagged full-length Nav1.5 in HEK 293 cells. The following applies: resveratrol 100 μM, 4 hrs. It is filed as cell-based. The protocol:
FIGS. 13A and 13B are a set of Western blots showing that SIRT1 de-ubiquitinates Nav1.5. (A) HEK 293 cells were transfected with full-length GFP-tagged Nav1.5 and HA-ubiquitin. Cells were treated with resveratrol (100 μM, 4 hrs). Nav1.5 was immunoprecipitated (IP) with GFP and immunoblotted with GFP and HA. (B) HEK 293 cells were transfected with GST-tagged Nav1.5 (III-IV) and HA-ubiquitin. Cells were treated with NAM or co-transfected with SIRT1. Nav1.5 (III-IV) was pulled down with GST-agarose and immunoblotted (IB) with HA.
Poly-ubiquitination of Nav1.5 inhibits its membrane localization (Van Bemmelen et al., Circ. Res. 95, 284-291, 2004). SIRT1 regulates ubiquitination of some of its targets, in some cases decreasing ubiquitination (Van Bemmelen et al., Circ. Res. 95, 284-291, 2004). Because SIRT1 increases membrane expression of Nav1.5, whether SIRT1 decreases ubiquitination of the channel was tested. First, the effect of the SIRT1 activator resveratrol on ubiquitination of Nav1.5 was determined. In HEK 293 cells GFP-tagged full-length Nav1.5 was robustly poly-ubiquitinated (FIG. 13A). […] Using GST-Nav1.5 (III-IV) the effect of SIRT1 on ubiquitination of this intracellular region of Nav1.5 was also examined. Similar to full-length Nav1.5, GST-Nav1.5 (III-IV) was also poly-ubiquitinated (FIG. 13B). […]

The next assay is described as follows: QRS amplitude on ECGs. It counts as in vivo. The following applies: suggestive of increased sodium currents. From the text:
It is disclosed herein that SIRT1 can deacetylate Nav1.5, that Nav1.5 and SIRT1 co-immunoprecipitate, that over-expression of SIRT1 increases INa currents and that dominant negative suppression of SIRT1 or use of SIRT1 inhibitors decreases INa currents, that SIRT1 increases membrane expression of Nav1.5 and dominant negative SIRT1 decreases membrane expression of Nav1.5, that SIRT1 targets lysine 1479 in Nav1.5, that SIRT1 increases INa and dominant negative SIRT1 decreases INa by targeting lysine 1479 in Nav1.5, and that SIRT1 increases membrane expression of Nav1.5 by targeting lysine 1479 in Nav1.5. In addition there is prolongation of the PR interval, intermittent high-grade atrioventricular block on ECGs and telemetry of cardiomyocyte-specific SIRT1 knockout mice compared to wild type control mice, and decreased conduction velocity of the electrical impulse in hearts of cardiomyocyte-specific SIRT1 knockout mice compared to wild type control mice.

In the next assay the test system is native Nav1.5 (INa). Put plainly: Whole cell patch clamp of INa in rat neonatal cardiac myocytes. It counts as cell-based. The following applies: 5 μM. In general terms: Patch clamp records ionic current or voltage across a cell membrane.
For the next assay, the system named is native Nav1.5. Kind of assay: Lysine acetylation of native Nav1.5 in rat neonatal cardiomyocytes (Western blot). It is filed as cell-based. As for the experimental part: FIGS. 9A-9C are a graph and a set of Western blots showing that inhibition of endogenous SIRT1 increases lysine acetylation of native Nav1.5 in rat neonatal cardiomyocytes.
as §1

The next assay has as its system GST-Nav1.5 (III-IV). Put plainly: Ubiquitination of GST-Nav1.5 (III-IV) in HEK 293 cells. It is filed as cell-based.

Take `Oc1ccc(C=Cc2cc(O)cc(O)c2)cc1` [resveratrol]: the “lysine acetylation of full-length Nav1.5” value in the assay on full-length Nav1.5 is listed as “decreased”. For the same compound, the “acetylation of Nav1.5 (III-IV)” value with Nav1.5 (III-IV) was “decreased”. For the same compound, in assay [1], the “poly-ubiquitination of full-length Nav1.5” value is “significantly decreased”. Also, the “QRS amplitude on ECGs” value in the assay “QRS amplitude on ECGs” was “increased”.
As to `NC(=O)[C@H]1CCCc2c1[nH]c1ccc(Cl)cc21` [Ex-243], the “effect on INa” value is “significantly decreased” with native Nav1.5 (INa) (compared to inactive isomer Ex-242) and “decreases” in the assay on native Nav1.5 (INa) (compared to inactive isomer Ex-242, listed as ex-243). In the assay on native Nav1.5, the “lysine acetylation of native Nav1.5” value is recorded as “increases”.
As for `NC(=O)c1cccnc1` [NAM, nicotinamide], in the assay with full-length Nav1.5, the “lysine acetylation of full-length Nav1.5” value is “increased”. The “acetylation of Nav1.5 (III-IV)” value in the assay with Nav1.5 (III-IV) is reported as “increased”. Besides, the “poly-ubiquitination of GST-Nav1.5 (III-IV)” value in the assay on GST-Nav1.5 (III-IV) is given as “increased”.
